These results are taken from article PMC3989234, “Introduction of Aromatic Ring-Containing Substituents in Cyclic Nucleotides Is Associated with Inhibition of Toxin Uptake by the Hepatocyte Transporters OATP 1B1 and 1B3” (PLoS ONE, 2014).

Data set [1] deals with T1, OATP1B1 (Homo sapiens, UniProt Q9Y6L6).
T1 sequence (Q9Y6L6 1-691): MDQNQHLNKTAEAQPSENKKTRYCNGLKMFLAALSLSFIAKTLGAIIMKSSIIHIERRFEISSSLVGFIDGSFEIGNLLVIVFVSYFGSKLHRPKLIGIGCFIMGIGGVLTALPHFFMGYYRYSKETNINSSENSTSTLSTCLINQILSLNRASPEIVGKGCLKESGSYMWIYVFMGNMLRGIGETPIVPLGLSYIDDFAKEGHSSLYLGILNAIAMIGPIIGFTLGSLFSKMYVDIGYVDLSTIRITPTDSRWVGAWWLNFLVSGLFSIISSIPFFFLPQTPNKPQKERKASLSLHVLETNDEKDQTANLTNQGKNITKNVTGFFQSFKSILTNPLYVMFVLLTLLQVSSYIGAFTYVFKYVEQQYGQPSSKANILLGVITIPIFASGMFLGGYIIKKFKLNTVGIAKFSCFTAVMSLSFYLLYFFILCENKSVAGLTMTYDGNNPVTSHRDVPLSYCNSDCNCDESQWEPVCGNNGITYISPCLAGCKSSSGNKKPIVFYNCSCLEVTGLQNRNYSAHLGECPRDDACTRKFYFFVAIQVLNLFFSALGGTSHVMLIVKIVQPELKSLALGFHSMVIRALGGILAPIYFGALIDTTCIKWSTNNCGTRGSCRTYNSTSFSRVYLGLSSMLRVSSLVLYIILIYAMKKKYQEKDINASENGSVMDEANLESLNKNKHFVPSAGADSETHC

The subject of data set [2] is primary rat hepatocytes.
The target in data set [3] is T2, OATP1B3 (Homo sapiens, UniProt Q9NPD5).
T2 sequence (Q9NPD5 whole entry): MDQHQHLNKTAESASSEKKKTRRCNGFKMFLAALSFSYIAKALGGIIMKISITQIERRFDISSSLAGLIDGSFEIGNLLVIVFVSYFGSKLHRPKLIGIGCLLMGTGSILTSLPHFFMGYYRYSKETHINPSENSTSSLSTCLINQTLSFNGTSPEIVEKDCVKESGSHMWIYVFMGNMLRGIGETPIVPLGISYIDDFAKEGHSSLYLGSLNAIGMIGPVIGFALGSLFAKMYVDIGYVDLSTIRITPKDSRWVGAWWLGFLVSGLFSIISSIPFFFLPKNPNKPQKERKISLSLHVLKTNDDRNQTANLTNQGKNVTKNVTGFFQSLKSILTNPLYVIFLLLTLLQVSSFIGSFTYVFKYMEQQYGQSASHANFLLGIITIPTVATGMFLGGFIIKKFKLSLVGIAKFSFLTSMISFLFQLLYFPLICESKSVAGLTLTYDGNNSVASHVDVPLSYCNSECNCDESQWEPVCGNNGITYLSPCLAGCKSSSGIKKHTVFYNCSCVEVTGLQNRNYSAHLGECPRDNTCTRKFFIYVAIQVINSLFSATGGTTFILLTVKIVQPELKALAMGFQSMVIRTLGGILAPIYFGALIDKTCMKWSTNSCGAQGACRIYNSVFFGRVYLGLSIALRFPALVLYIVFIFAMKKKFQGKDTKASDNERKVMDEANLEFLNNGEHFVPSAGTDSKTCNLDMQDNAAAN
For data set [4], the target named is T2, OATP1B3. As to the kind of experiment: cell-based.
The target of data set [5] is T1, OATP1B1. As to the kind of experiment: cell-based.
The test system of data set [6] is primary rat hepatocytes. The source holds these as a separate data set.
Data set [7] has as its system primary rat hepatocytes. This is another data set of the same source.

Like-named read-outs stand apart in the source and are kept apart here. Bounds are passed on as bounds.

Consider `Nc1ncnc2c1nc(Br)n2C1OC2COP(O)(=S)OC2C1O` (single isomer, unassigned) [Rp-8-Br-cAMPS, 8-Bromoadenosine-3′, 5′-cyclic monophosphorothioate, Rp-isomer], for which the IC50 in data set [1] and in data set [3] was above 300 µM throughout. Further, in data set [2] (300 µM, 150 nM Nod), the “Effect on Nod-induced hepatocyte apoptosis (Fig. 1F)” value is “inhibited apoptotic morphology”.
Take `COC1C2OP(O)(=S)OCC2OC1n1c(Sc2ccc(Cl)cc2)nc2c(N)ncnc21` (single isomer, unassigned) [Rp-8-pCPT-2′-O-Me-cAMPS, 8-(4-Chlorophenylthio)-2′-O-methyladenosine-3′, 5′-cyclic monophosphorothioate, Rp-isomer]: the half-inhibitory concentration (IC50) in data set [1] and in data set [3] was above 300 µM throughout.
On to `CO[C@H]1C2OP(=O)(O)OC[C@H]2O[C@H]1n1c(Br)nc2c(N)ncnc21` (stereo partly shown) [8-Br-2′-O-Me-cAMP, 8-Bromo-2′-O-methyladenosine-3′, 5′-cyclic monophosphate], for which the 50% inhibitory concentration (IC50) in data set [1] and in data set [3] was above 300 µM each time. Further, the “Effect on Nod-induced apoptosis / Nod transport, OATP1B3-transfected HEK293T cells” value in data set [3] is “some inhibition”.
Turning to `CO[C@@H]1[C@H](O)[C@@H](CO)O[C@H]1n1c(Sc2ccc(Cl)cc2)nc2c(N)ncnc21` [8-pCPT-2′-O-Me-Ado, 8-(4-Chlorophenylthio)-2′-O-methyladenosine], in data set [4], the IC50 was determined as 17.2 µM and the Ki is 4.61 µM. In addition, in data set [5], the IC50 is 31.3 µM and the Ki turned out to be 10.4 µM.
In the case of `CO[C@@H]1[C@@H]2OP(=O)(OCOC(C)=O)OC[C@H]2O[C@H]1n1c(Sc2ccc(Cl)cc2)nc2c(N)ncnc21` (stereo partly shown) [8-pCPT-2′-O-Me-cAMP-AM, 8-(4-Chlorophenylthio)-2′-O-methyladenosine-3′, 5′-cyclic monophosphate, acetoxymethyl ester], in data set [6], the “Effect on [3H]-Nod accumulation in hepatocytes” value is “did not affect”. Besides, in data set [7] (50 µM), the “Effect on [14C]-glycocholic acid accumulation in hepatocytes” value was “no inhibitory effect”.
As to `O=P1(O)OCC2OC(n3c(Sc4ccc(Cl)cc4)nc4c(Nc5ccccc5)ncnc43)C(O)C2O1` (stereo not shown) [8-pCPT-6-Phe-cAMP, 8-(4-Chlorophenylthio)-N^6-phenyladenosine-3′, 5′-cyclic monophosphate], the Ki in data set [1] was found to be 2.07 µM; in data set [3] it was 0.804 µM.
In data set [1], `O=P1(O)OC[C@H]2O[C@@H](n3c(Sc4ccc(Cl)cc4)nc4c(Nc5ccccc5)ncnc43)C[C@@H]2O1` [8-pCPT-6-Phe-dcAMP, 8-(4-Chlorophenylthio)-N^6-phenyladenosine-2′-deoxyadenosine 3′, 5′-cyclic monophosphate] showed an IC50 of 8.2 µM and a Ki of 2.73 µM. In data set [3], this molecule displayed an IC50 of 8 µM and a Ki of 2.14 µM.
In the case of `Nc1ncnc2c1ncn2[C@@H]1O[C@H](CO)[C@@H](O)[C@H]1O` [Adenosine, adenosine], the IC50 in data set [4] and in data set [5] was above 300 µM throughout.
As for `CCCC(=O)Nc1ncnc2c1ncn2[C@@H]1O[C@@H]2COP(=O)(O)O[C@H]2[C@H]1O` [Analog 6-MB-cAMP, N^6-Monobutyryladenosine-3′, 5′-cyclic monophosphate], the “Effect on Nod-induced apoptosis / Nod transport, OATP1B1-transfected HEK293T cells” value in data set [1] is “no inhibitory effect”. The IC50 in data set [1] and in data set [3] was above 300 µM in each case. Moreover, the “Effect on Nod-induced hepatocyte apoptosis (Fig. 1A)” value in data set [2] is listed as “no change in apoptosis induction”. In addition, the “Effect on Nod-induced apoptosis / Nod transport, OATP1B3-transfected HEK293T cells” value in data set [3] is given as “no inhibitory effect”. Also, the “[14C]-GCA accumulation rel. to control” value was “about 1.7” in data set [7] (50 µM) and 1.1 in data set [7] (400 µM).
As to `Nc1ncnc2c1nc(Br)n2[C@@H]1O[C@@H]2COP(=O)(O)O[C@H]2[C@H]1O` [Analog 8-Br-cAMP, 8-Bromoadenosine-3′, 5′-cyclic monophosphate], the IC50 in data set [1] and in data set [3] was above 300 µM in each case.
Take `Nc1nc2c(nc(Br)n2[C@@H]2O[C@@H]3COP(=O)(O)O[C@H]3[C@H]2O)c(=O)[nH]1` [Analog 8-Br-cGMP, 8-Bromoguanosine-3′, 5′-cyclic monophosphate]: in data set [1], the “Effect on Nod-induced apoptosis / Nod transport, OATP1B1-transfected HEK293T cells” value was “inactive” and the IC50 was above 300 µM. For the same molecule, in data set [3], the “Effect on Nod-induced apoptosis / Nod transport, OATP1B3-transfected HEK293T cells” value was “inactive” and the IC50 is above 300 µM.
Turning to `Nc1ncnc2c1nc(Sc1ccc(Cl)cc1)n2[C@@H]1O[C@H](CO)[C@@H](O)[C@H]1O` [Analog 8-pCPT-Ado, 8-(4-Chlorophenylthio)adenosine], in data set [4], the midpoint of inhibition, the IC50, lay at 150 µM and the Ki amounted to 40.2 µM. In data set [5], this molecule had an IC50 above 300 µM.
Turning to `Nc1ncnc2c1nc(Sc1ccc(Cl)cc1)n2[C@@H]1O[C@@H]2COP(=O)([O-])O[C@H]2[C@H]1O.[Na+]` [Analog 8-pCPT-cAMP, 8-(4-Chlorophenylthio)adenosine-3′, 5′-cyclic monophosphate], in data set [1], the “Effect on Nod-induced apoptosis / Nod transport, OATP1B1-transfected HEK293T cells” value is “inhibits”; the IC50 amounted to 130 µM; the affinity, expressed as Ki, was 43.3 µM. In addition, in data set [2], the “Effect on Nod-induced hepatocyte apoptosis (Fig. 1A)” value is “inhibited completely apoptotic morphology” and the “Effect on Nod-induced hepatocyte apoptosis (Fig. 2A)” value is listed as “clear inhibition”. In data set [3], the “Effect on Nod-induced apoptosis / Nod transport, OATP1B3-transfected HEK293T cells” value was “inhibits”; the IC50 worked out at 49.6 µM; the affinity corresponds to a Ki of 13.3 µM. Moreover, in data set [7], the “[14C]-GCA accumulation compared to control” value came out at 60%.
Take `Nc1nc2c(nc(Sc3ccc(Cl)cc3)n2[C@@H]2O[C@@H]3COP(=O)(O)O[C@H]3[C@H]2O)c(=O)[nH]1` [Analog 8-pCPT-cGMP, 8-(4-Chlorophenylthio)guanosine-3′, 5′-cyclic monophosphate]: the IC50 in data set [1] came out at 259 µM; in data set [3], 88.8 µM. Also, the Ki is 86.3 µM in data set [1] and 29.6 µM in data set [3].
On to `Nc1ncnc2c1nc(Sc1ccc(Cl)cc1)n2C1CC2OP(=O)(O)OCC2O1` (stereo not shown) [Analog 8-pCPT-dcAMP, 8-(4-Chlorophenylthio)adenosine-2′-deoxyadenosine-3′, 5′-cyclic monophosphate], for which, in data set [1], 223 µM corresponded to half-maximal inhibition (IC50) and the Ki came to 74.7 µM. In data set [2], the “Effect on Nod-induced hepatocyte apoptosis (Fig. 2A)” value is “blocked Nod-induced apoptosis”. Further, in data set [3], the IC50 came to 55.7 µM and the affinity, expressed as Ki, was 14.9 µM. Besides, the “Effect on [14C]-glycocholic acid accumulation in hepatocytes” value in data set [7] is “inhibited uptake”.
With `O=C1OC(c2ccc(O)c(S(=O)(=O)O)c2)(c2ccc(O)c(S(=O)(=O)O)c2)c2c(Br)c(Br)c(Br)c(Br)c21` [BSP, sulfobromophthalein], the “Effect on [3H]-Nod accumulation in hepatocytes” value in data set [6] is listed as “complete inhibition”. Besides, the “Effect on [14C]-glycocholic acid accumulation in hepatocytes” value in data set [7] (50 µM) was “complete inhibition”.
As to `CCCC(=O)Nc1ncnc2c1ncn2[C@@H]1O[C@@H]2COP(=O)(O)O[C@H]2[C@H]1OC(=O)CCC` [DB-cAMP, N^6, 2′-O-Dibutyryladenosine-3′, 5′-cyclic monophosphate], the “Effect on Nod-induced apoptosis / Nod transport, OATP1B1-transfected HEK293T cells” value in data set [1] (human) is listed as “but not to OATP1B1 activity”. In addition, the results for the IC50 in data set [4] and in data set [5] were 119 µM and above 300 µM, respectively.
As for `CC(C)Cn1c(=O)n(C)c(=O)c2[nH]cnc21` [IBMX], in data set [1] (250 µM), the “Effect on Nod-induced apoptosis, OATP1B1-transfected cells” value is “did not affect”. Further, the “Effect on Nod-induced apoptosis, OATP1B3-transfected cells” value in data set [3] (250 µM) is “did not affect”.
On to `C/C=C1/C(=O)N[C@@H](C(=O)O)[C@H](C)C(=O)N[C@@H](CCCNC(=N)N)C(=O)N[C@@H](/C=C/C(C)=C/[C@H](C)[C@H](Cc2ccccc2)OC)[C@H](C)C(=O)N[C@@H](C(=O)O)CCC(=O)N1C` [Nod, nodularin], for which the Km in data set [1] (read-out: Km for Nod, OATP1B1) came out at 0.05 µM; in data set [3] (read-out: Km for Nod, OATP1B3) it was 0.22 µM.
As for `Nc1ncnc2c1ncn2C1OC2COP(=O)(O)OC2C1O` (stereo not shown) [cAMP], the “Effect on Nod-induced apoptosis / Nod transport, OATP1B1-transfected HEK293T cells” value in data set [1] is recorded as “did not affect”. In addition, the IC50 in data set [4] and in data set [5] was above 300 µM throughout. Further, the “Effect on Nod-induced apoptosis / Nod transport, OATP1B3-transfected HEK293T cells” value in data set [3] is recorded as “did not affect”.
In the case of `Nc1nc2c(ncn2[C@@H]2O[C@@H]3COP(=O)(O)O[C@H]3[C@H]2O)c(=O)[nH]1` [cGMP], in data set [1], the “Effect on Nod-induced apoptosis / Nod transport, OATP1B1-transfected HEK293T cells” value is given as “did not affect” and the IC50 is above 300 µM. Further, in data set [3], the “Effect on Nod-induced apoptosis / Nod transport, OATP1B3-transfected HEK293T cells” value is “did not affect” and the IC50 is above 300 µM.
`CO[C@H]1/C=C/O[C@@]2(C)Oc3c(C)c(O)c4c(O)c(cc(O)c4c3C2=O)NC(=O)/C(C)=C\C=C\[C@H](C)[C@H](O)[C@@H](C)[C@@H](O)[C@@H](C)[C@H](OC(C)=O)[C@@H]1C` [rifamycin SV, Rifamycin SV]: in data set [1], the “Effect on Nod-induced apoptosis / Nod transport, OATP1B1-transfected HEK293T cells” value is recorded as “abolished”. Further, in data set [3], the “Effect on Nod-induced apoptosis / Nod transport, OATP1B3-transfected HEK293T cells” value is “abolished”.

Broadly, the IC50 is the point on the concentration scale where inhibition reaches its midpoint. As usually defined, the Ki is a dissociation constant, usually derived from enzyme kinetics or from competition with a known ligand. A high value points to lower affinity. Usually Km stands for the substrate concentration at which the rate is half of its maximum.
